Reference: patent publication US20260138976A1 (Hoffmann-La Roche Inc., priority 2022, published 2026)

Tested on: primary human T-cells
Assay: IL2 secretion measurements (24 h, CD3-stimulated T-cells, PBS counter screen)
Type: cell-based
Details: for Emax IL2 (% activation): CD3 condition, normalised to DMSO (neutral) and 20 μM reference compound A1 = 100%; for EC50: Homo sapiens, T-cell, CD3-stimulated primary human T-cells, IL2 secretion, fitted sigmoidal curve, read-out: Tcell IL2 CD3 EC50
Procedure: As readouts for T-cell activation, 1L2 secretion after 24 hours and proliferation after 5 days was measured. Increases in IL2 secretion and proliferation upon compound treatment were assessed as the % of the maximum of reference compound A1. WO 2016/139181 discloses reference compound A1 as example 70. As a counter screen and to make sure that no unwanted TCR-independent activation was triggered, PBS conditions were run for all compounds.
Expanded primary human T-cells were thawed and cultured in RPMI 1640 (Gibco, #61870-010)+5% human serum (HS, Sigma, #H3667)+1 mM Sodium Pyruvate (Gibco, #11360-039)+50 μM 2-mercaptoethanol (Gibco, #31350-010) and 1× Pen-Strep (Life Technologies, #15140122) medium at density of 2 Mio/ml for 3 hours in 5% CO2, 37° C. and 95% humidity. For coating of plates, […] or PBS++ with CD3 antibody (concentration depending on donor and determined by CD3 titrations) was added 100 μl/well to Poly-D Lysine coated 96-well plates. Plates were sealed and incubated at room temperature for 3 hours on a table-top rocking platform. After incubation, plates were washed once with PBS−− and filled with 40 μl/well culture medium only. Compounds were then added (see next section) to medium only plates. After 3 hours of culturing the T-cells, cells were filtered through a cell strainer (Miltenyi Biotech, #130-041-407), counted again and concentration was adjusted to 1.25 Mio/ml.
Cells were then seeded 80 μl/well to the 40 μl/well including dispensed compounds according to plate layout. By adding cells, compounds were further diluted 1:3, and resulting in 100 k cells/120 μl/well. After 24 hours 40 μl of supernatant was collected carefully from the top while not disturbing the cells and transferred into a round bottom 96 well plate. Collected and frozen supernatant was used for detection of IL2 using the IL-2 Human ProQuantum Immunoassay Kit (Invitrogen) or using the Human IL-2 ELISA Kit (Thermo Fisher).
Compounds were added in a 5 or 6 pt dose response with the Tecan D300e Digital Dispenser, all conditions 3 times more concentrated than the end-concentration, since cells are added afterwards (80 μl cells to 40 μl prepared medium with treatment). The DR was starting at 20 μM or 10 μM final top concentration and a dilution factor of 3.333. The positive control was the reference compound A1 that was added in a dose response as well, additionally to 3 wells of only 20 μM representing the positive stimulator control. All wells were normalized with DMSO to a final concentration of 0.6% (0.2% end-concentration).
The immunoassay is done following the manufacturer's manual (Invitrogen, #A35603). Additional information: For the immunoassay, MicroAmp™ EnduraPlate™ Optical 384-Well plates are used. Frozen supernatant is thawed and centrifuged for 5 minutes at 1000×g, both steps at 4° C. After centrifugation, required sample amount is taken from the top, and in a separate LightCycler V-bottom plate (working plate) diluted with assay dilution buffer, dilution factor depending on the PBS or CD3 condition but at least 1:3. IL-2 standard and blanks are prepared in the same V-bottom plate, standard with a range of 0.0128-5000 pg/ml (extended version). After preparation, 5 μl of sample dilutions or standard/blanks are transferred to the optical 384-well plate (assay plate) and the 10 μl reaction protocol is being followed. For measurement, the QuantStudio 12K Flex system is used. Raw data is extracted and IL-2 concentrations are calculated with the Thermo Fisher online app (apps.thermofisher.com/apps/proquantum).
ELISA is done following the manufacturer's manual (Thermo Fisher Scientific, #88-7025-88). Additional information: For the ELISA Nunc MaxiSorp 96 well plates are used. Frozen supernatant is thawed and centrifuged for 5 minutes at 1000×g, both steps at 4° C. […]

CC(C)(C#N)c1nnc(-c2ccc3c(c2)N(Cc2ccc(-n4nnc(C(F)(F)F)n4)cc2)C(=O)[C@@H](N)CS3(=O)=O)o1 [Example 120, 2-[5-[(3R)-3-amino-1,1,4-trioxo-5-[[4-[5-(trifluoromethyl)tetrazol-2-yl]phenyl]methyl]-2,3-dihydro-1λ^6,5-benzothiazepin-7-yl]-1,3,4-oxadiazol-2-yl]-2-methyl-propanenitrile]
Emax IL2 (% activation): 135 % activation | EC50: 1330 nM

N[C@H]1CS(=O)(=O)c2ccc(-c3nnc(N4CCOC(F)(F)C4)o3)cc2N(Cc2ccc(-c3nnc(C(F)(F)F)o3)cc2)C1=O [Example 80]
Emax IL2 (% activation): 360 % activation | EC50: 3540 nM

N[C@H]1CS(=O)(=O)c2ccc(-c3nnc(C4(CO)CCCO4)o3)cc2N(Cc2ccc(-c3noc(C(F)(F)F)n3)cc2)C1=O (stereo partly drawn) [Example 54, (3R)-3-amino-7-[5-[2-(hydroxymethyl)tetrahydrofuran-2-yl]-1,3,4-oxadiazol-2-yl]-1,1-dioxo-5-[[4-[5-(trifluoromethyl)-1,2,4-oxadiazol-3-yl]phenyl]methyl]-2,3-dihydro-1λ^6,5-benzothiazepin-4-one]
Emax IL2 (% activation): 126 % activation | EC50: 3340 nM

N[C@H]1CS(=O)(=O)c2ccc(-c3nnc(C4(N)CCCCC4)o3)cc2N(Cc2ccc(-c3ccc(C(F)(F)F)cc3)cc2)C1=O [Example 42, (3R)-3-amino-7-[5-(1-aminocyclohexyl)-1,3,4-oxadiazol-2-yl]-1,1-dioxo-5-[[4-[4-(trifluoromethyl)phenyl]phenyl]methyl]-2,3-dihydro-1λ^6,5-benzothiazepin-4-one]
Emax IL2 (% activation): 128 % activation | EC50: 1390 nM

CC(C)(C#N)c1nnc(-c2ccc3c(c2)N(Cc2ccc(-c4ncc(OC(F)(F)F)cn4)cc2)C(=O)[C@@H](N)CS3(=O)=O)o1 [Example 117]
Emax IL2 (% activation): 114 % activation | EC50: 587 nM

CC(C)(C#N)c1nnc(-c2ccc3c(c2)N(Cc2ccc(-c4ccc(C5CC5)cn4)cc2)C(=O)[C@@H](N)CS3(=O)=O)o1 [Example 118, 2-[5-[(3R)-3-amino-5-[[4-(5-cyclopropyl-2-pyridyl)phenyl]methyl]-1,1,4-trioxo-2,3-dihydro-1λ^6,5-benzothiazepin-7-yl]-1,3,4-oxadiazol-2-yl]-2-methyl-propanenitrile]
Emax IL2 (% activation): 172 % activation | EC50: 4070 nM

COC(F)(c1nnc(-c2ccc3c(c2)N(Cc2ccc(-c4noc(C(F)(F)F)n4)cc2)C(=O)[C@@H](N)CS3(=O)=O)o1)C(F)(F)F (stereo partly drawn) [Example 37, (3R)-3-amino-1,1-dioxo-7-[5-(1,2,2,2-tetrafluoro-1-methoxy-ethyl)-1,3,4-oxadiazol-2-yl]-5-[[4-[5-(trifluoromethyl)-1,2,4-oxadiazol-3-yl]phenyl]methyl]-2,3-dihydro-1λ^6,5-benzothiazepin-4-one]
Emax IL2 (% activation): 198 % activation | EC50: 338 nM

CC(C)(C#N)c1nnc(-c2ccc3c(c2)N(Cc2ccc(-c4ncc(C(F)(F)F)cn4)cc2)C(=O)[C@@H](N)CS3(=O)=O)o1 [Example 127, 2-[5-[(3R)-3-amino-1,1,4-trioxo-5-[[4-[5-(trifluoromethyl)pyrimidin-2-yl]phenyl]methyl]-2,3-dihydro-1λ^6,5-benzothiazepin-7-yl]-1,3,4-oxadiazol-2-yl]-2-methyl-propanenitrile]
Emax IL2 (% activation): 112 % activation | EC50: 4560 nM

N[C@H]1CS(=O)(=O)c2ccc(-c3nnc(C4(C(F)F)CNC4)o3)cc2N(Cc2ccc(-c3ccc(C(F)(F)F)cc3)cc2)C1=O [Example 152]
Emax IL2 (% activation): 19 % activation | EC50: > 10000 nM

Cn1nc(C(F)(F)F)cc1-c1ccc(CN2C(=O)[C@@H](N)CS(=O)(=O)c3ccc(-c4nnc(C(C)(C)C#N)o4)cc32)cc1 [Example 107, 2-[5-[(3R)-3-amino-5-[[4-[2-methyl-5-(trifluoromethyl)pyrazol-3-yl]phenyl]methyl]-1,1,4-trioxo-2,3-dihydro-1λ^6,5-benzothiazepin-7-yl]-1,3,4-oxadiazol-2-yl]-2-methyl-propanenitrile]
Emax IL2 (% activation): 241 % activation | EC50: 1390 nM
